This assay addresses T1, human plasma renin (Homo sapiens, UniProt P00797).
T1 construct: from tissue; host or cells: human plasma
T1 sequence (P00797 67-406): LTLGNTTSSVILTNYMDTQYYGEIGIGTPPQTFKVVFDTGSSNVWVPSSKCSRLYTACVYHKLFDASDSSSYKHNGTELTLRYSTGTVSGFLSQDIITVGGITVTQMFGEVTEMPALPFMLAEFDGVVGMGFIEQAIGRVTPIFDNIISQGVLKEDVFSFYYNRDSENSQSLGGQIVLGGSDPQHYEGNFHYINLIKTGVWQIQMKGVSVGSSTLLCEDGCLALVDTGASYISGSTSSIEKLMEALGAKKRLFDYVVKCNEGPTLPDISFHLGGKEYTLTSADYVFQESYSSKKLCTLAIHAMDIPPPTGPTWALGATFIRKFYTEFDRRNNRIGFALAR
Nature of the assay: Renin inhibiting activities (human plasma, angiotensin I by radioimmunoassay). The class given is biochemical. As to conditions: pH7.4, 37° C., one hour. The procedure: TEST EXAMPLE 1: Renin inhibiting activities
To 156 μl of a 0.2M sodium phosphate buffer solution (pH7.4), 40 μl of a solution mixture of 34 mM 8-hydroxyquinoline and 100 mM disodium ethylenediamine tetraacetate, 4 μl of dimethyl sulfoxide or a dimethyl sulfoxide solution of an inhibitor and 200 μl of human plasma were added and reacted at 37° C. for one hour. Then, pepstatin was added thereto to terminate the reaction, and the amount of the resulting angiotension I was measured by radio immunoassay whereby the inhibiting activity was determined.
What is called IC50 is the concentration that gives 50% inhibition. Low values mean inhibition by little substance, high ones a need for much substance. `CCCC[C@H](NC(=O)[C@H](Cc1cccc2ccccc12)C[S+]([O-])c1ncccn1)C(=O)N[C@@H](CC(C)C)[C@@H](O)CC(CC)C(=O)NCC(C)C` (mixture of isomers) [Example 7, (2RS,4S,5S)-5-{L-N-[(2S)-3-(pyrimidin-2-yl)sulfinyl-2-(1-naphthylmethyl)propionyl]norleucyl}amino-2-ethyl-4-hydroxy-7-methyloctanoic acid isobutylamide] gave a half-inhibitory concentration (IC50) of 0.83 nM.

Take `CCCC[C@H](NC(=O)C(CCCS(=O)(=O)CC)Cc1cccc2ccccc12)C(=O)N[C@@H](CC(C)C)[C@@H](O)CC(CC)C(=O)NCC(C)C` (single isomer, unassigned) [Example 13, (2RS,4S,5S)-5-{L-N-[(2R or S)-5-ethylsulfonyl-2-(1-naphthylmethyl)pentanoyl]norleucyl}amino-2-ethyl-4-hydroxy-7-methyloctanoic acid isobutylamide]: the 50% inhibitory concentration (IC50) amounted to 1.9 nM.

`CCCC[C@H](NC(=O)[C@H](Cc1cccc2ccccc12)CS(=O)(=O)C(C)(C)C)C(=O)N[C@@H](CC1CCCCC1)[C@@H](O)[C@@H](O)CN1CCOCC1` [Example 38, (2S,3R,4S)-4-{L-N-[(2S)-3-tert-butylsulfonyl-2-(1-naphthylmethyl)propionyl]norleucyl}amino-5-cyclohexyl-1-morpholino-2,3-pentanediol] returned a concentration for half-maximal inhibition (IC50) of 5.9 nM.

Turning to `CCCC[C@H](NC(=O)[C@H](Cc1ccccc1)CS(=O)(=O)Cc1ccco1)C(=O)N[C@@H](CC1CCCCC1)[C@@H](O)[C@@H](O)CN1CCOCC1` [Example 56, (2S,3R,4S)-4-{L-N-[(2S)-2-benzyl-3-furfurylsulfonylpropionyl]norleucyl}amino-5-cyclohexyl-1-morpholino-2,3-pentanediol], half-maximal inhibition (IC50) required 2 nM.

Compound `CCCC[C@H](NC(=O)C(Cc1ccccc1)CS(=O)(=O)C1CCCC1)C(=O)N[C@@H](CC1CCCCC1)[C@@H](O)[C@@H](O)CN1CCOCC1` (single isomer, unassigned) [Example 51(B), (2S,3R,4S)-4-{L-N-[(2S or R)-3-cyclopentanesulfonyl-2-benzylpropionyl]norleucyl}amino-5-cyclohexyl-1-morpholino-2,3-pentanediol] displayed an IC50 of 2 nM.

Consider `CCCC[C@H](NC(=O)[C@H](Cc1ccccc1)CS(=O)(=O)C1CCCC1)C(=O)N[C@@H](CC1CCCCC1)[C@@H](O)[C@@H](O)C[N+]1([O-])CCOCC1` [Example 52, N-[(2S,3R,4S)-4-[L-N-[(2S)-3-cyclopentanesulfonyl-2-benzylpropionyl]norleucyl]amino-5-cyclohexyl-2,3-dihydroxypentyl]morpholine N-oxide], for which the IC50 was found to be 3 nM.

`CCCC[C@H](NC(=O)[C@H](Cc1cccc2ccccc12)C[S+]([O-])c1ncccn1)C(=O)N[C@@H](CC1CCCCC1)[C@@H](O)[C@@H](O)CN1CCOCC1` (single isomer, unassigned) [Example 42]: the IC50 amounted to 3.6 nM.

Compound `CCC(C[C@H](O)[C@H](CC(C)C)NC(=O)[C@H](Cc1c[nH]cn1)NC(=O)[C@H](Cc1cccc2ccccc12)CS(=O)(=O)CC)C(=O)NCC(C)C` (mixture of isomers) [Example 15, (2RS,4S,5S)-5-{L-N^α -[(2S)-3-ethylsulfonyl-2-(1-naphthylmethyl)propionyl]histidyl}amino-2-ethyl-4-hydroxy-7-methyloctanoic acid isobutylamide] returned a concentration for half-maximal inhibition (IC50) of 0.5 nM.

In the case of `CCCC[C@H](NC(=O)[C@H](Cc1cccc2ccccc12)CS(=O)(=O)Cc1ccco1)C(=O)N[C@@H](CC1CCCCC1)[C@@H](O)[C@@H](O)CN1CCOCC1` [Example 47, (2S,3R,4S)-4-{L-N-[(2S)-3-furfurylsulfonyl-2-(1-naphthylmethyl)propionyl]norleucyl}amino-5-cyclohexyl-1-morpholino-2,3-pentanediol], inhibition was half-maximal at 2.3 nM (IC50).

For the compound `CCCC[C@H](NC(=O)[C@H](Cc1cccc2cccnc12)CS(=O)(=O)CC)C(=O)N[C@@H](CC(C)C)[C@@H](O)CC(CC)C(=O)NCC(C)C` (mixture of isomers) [Example 10, (2RS,4S,5S)-5-{L-N-[(2S)-3-ethylsulfonyl-2-(8-quinolylmethyl)propionyl]norleucyl}amino-2-ethyl-4-hydroxy-7-methyloctanoic acid isobutylamide], the IC50 was determined as 2 nM.

`CCS(=O)(=O)C[C@@H](Cc1cccc2ccccc12)C(=O)N[C@@H](Cc1c[nH]cn1)C(=O)N[C@@H](CC1CCCCC1)[C@@H](O)[C@@H](O)CN1CCOCC1` [Example 31, (2S,3R,4S)-4-{L-N^α -[(2S)-3-ethylsulfonyl-2-(1-naphthylmethyl)propionyl]histidyl}amino-5-cyclohexyl-1-morpholino-2,3-pentanediol] displayed an IC50 of 4.2 nM.

`CCCC[C@H](NC(=O)[C@H](Cc1ccccc1)CS(=O)(=O)c1ncccn1)C(=O)N[C@@H](CC1CCCCC1)[C@@H](O)[C@@H](O)CN1CCOCC1` [Example 44, (2S,3R,4S)-4-{L-N-[(2S)-2-benzyl-3-(pyrimidin-2-yl)sulfonylpropionyl]norleucyl}amino-5-cyclohexyl-1-morpholino-2,3-pentanediol]: the concentration for half-maximal inhibition (IC50) came out at 3.8 nM.

As for `CCCC[C@H](NC(=O)[C@@H](CSc1ncccn1)Cc1cccc2ccccc12)C(=O)N[C@@H](CC1CCCCC1)[C@@H](O)[C@@H](O)CN1CCOCC1` [Example 40, (2S,3R,4S)-4-{L-N-[(2S)-2-(1-naphthylmethyl)-3-(pyrimidin-2-yl)thiopropionyl]norleucyl}amino-5-cyclohexyl-1-morpholino-2,3-pentanediol], the IC50 was 5.3 nM.

Compound `CCCC[C@H](NC(=O)C(Cc1cccc2ccccc12)CS(=O)(=O)CC)C(=O)N[C@@H](CC(C)C)[C@@H](O)CC(CC)C(=O)NCC(C)C` (single isomer, unassigned) [Example 1, (2RS,4S,5S)-5-{L-N-[(2R or S)-3-ethylsulfonyl-2-(1-naphthylmethyl)propionyl]norleucyl}amino-2-ethyl-4-hydroxy-7-methyloctanoic acid isobutylamide] registered an IC50 of 0.5 nM. Compared with the last compound, the IC50 is about 11-fold lower.

As for `CCCC[C@H](NC(=O)[C@@H](CSc1nncs1)Cc1cccc2ccccc12)C(=O)N[C@@H](CC(C)C)[C@@H](O)CC(CC)C(=O)NCC(C)C` (stereo partly drawn) [Example 5, (2RS,4S,5S),-5-{L-N-[(2S)-3-(1,3,4-thiadiazol-2-yl)thio-2-(1-naphthylmethyl)propionyl]norleucyl}amino-2-ethyl-4-hydroxy-7-methyloctanoic acid isobutylamide], the midpoint of inhibition, the IC50, lay at 1.4 nM.

Regarding `CCCC[C@H](NC(=O)[C@@H](CSc1ncccn1)Cc1cccc2ccccc12)C(=O)N[C@@H](CC(C)C)[C@@H](O)CC(CC)C(=O)NCC(C)C` (mixture of isomers) [Example 6, (2RS,4S,5S)-5-{L-N-[(2S)-3-(pyrimidin-2-yl)thio-2-(1-naphthylmethyl)propionyl]norleucyl}amino-2-ethyl-4-hydroxy-7-methyloctanoic acid isobutylamide], the IC50 stood at 1.6 nM.

Compound `CC(C)[S+]([O-])C[C@@H](Cc1cccc2ccccc12)C(=O)N[C@@H](Cc1c[nH]cn1)C(=O)N[C@@H](CC1CCCCC1)[C@@H](O)[C@@H](O)CN1CCOCC1` (stereo partly drawn) [Example 35, (2S,3R,4S)-4-{L-N^α -[(2S)-3-isopropylsulfinyl-2-(1-naphthylmethyl)propionyl]histidyl}amino-5-cyclohexyl-1-morpholino-2,3-pentanediol] came in with an IC50 of 5.9 nM. This IC50 lies about 3.7-fold higher than the previous one.

Compound `CCCC[C@H](NC(=O)C(Cc1cccc2ccccc12)CS(=O)(=O)CCO)C(=O)N[C@@H](CC1CCCCC1)[C@@H](O)[C@@H](O)CN1CCOCC1` (single isomer, unassigned) [Example 36, (2S,3R,4S)-4-{L-N-[(2S or R)-3-(2-hydroxyethyl)sulfonyl-2-(1-naphthylmethyl)propionyl]norleucyl}amino-5-cyclohexyl-1-morpholino-2,3-pentanediol] came in with a half-maximal inhibitory concentration (IC50) of 2.7 nM.

For `CCCC[C@H](NC(=O)[C@H](Cc1cccc2ccccc12)C[S+]([O-])CC)C(=O)N[C@@H](CC1CCCCC1)[C@@H](O)[C@@H](O)CN1CCOCC1` (stereo partly drawn) [Example 49(A), (2S,3R,4S)-4-{L-N-[(2S)-3-ethylsulfinyl-2-(1-naphthylmethyl)propionyl]norleucyl}amino-5-cyclohexyl-1-morpholino-2,3-pentanediol], the IC50 was 6.1 nM.

The compound `CCC(C[C@H](O)[C@H](CC(C)C)NC(=O)[C@H](Cc1c[nH]cn1)NC(=O)[C@H](Cc1cccc2cccnc12)CS(=O)(=O)CC)C(=O)NCC(C)C` (stereo partly drawn) [Example 11, (2RS,4S,5S)-5-{L-N^α -[2(S)-3-ethylsulfonyl-2-(8-quinolylmethyl)propionyl]histidyl}amino-2-ethyl-4-hydroxy-7-methyloctanoic acid isobutylamide] yielded an IC50 of 3.1 nM.

`CCCC[C@H](NC(=O)[C@H](Cc1cccc2ccccc12)CS(=O)(=O)c1ncccn1)C(=O)N[C@@H](CC1CCCCC1)[C@@H](O)[C@@H](O)CN1CCOCC1` [Example 41, (2S,3R,4S)-4-{L-N-[(2S)-2-(1-naphthylmethyl)-3-(pyrimidin-2-yl)sulfonylpropionyl]norleucyl}amino-5-cyclohexyl-1-morpholino-2,3-pentanediol] had an IC50 of 1.7 nM.

(Values after patent publication US5122523A, “N-acylamino acid derivatives and their pharmaceutical compositions” (Banyu Pharmaceutical Co., Ltd., priority 1987, dated 1992).)
